Active and inactive are the calls of the source. How the calls were made is not given here.
System: CCRIS mutagenicity, Ames/micronucleus/aberration tests
Assay: CCRIS mutagenicity studies
[1] = Test System: AMES SALMONELLA TYPHIMURIUM, Strain/Indicator: TA97, Metabolic Activation: NONE, Method: PREINCUBATION
[2] = Test System: AMES SALMONELLA TYPHIMURIUM, Strain/Indicator: TA98, Metabolic Activation: NONE, Method: PREINCUBATION
[3] = Test System: AMES SALMONELLA TYPHIMURIUM, Strain/Indicator: TA100, Metabolic Activation: NONE, Method: PREINCUBATION
[4] = Test System: AMES SALMONELLA TYPHIMURIUM, Strain/Indicator: TA1535, Metabolic Activation: NONE, Method: PREINCUBATION

Measured: mutagenic call

Cc1ccc(CO)cc1
inactive: Test System: AMES SALMONELLA TYPHIMURIUM, Strain/Indicator: TA97, Metabolic Activation: HAMSTER, LIVER, S-9, AROCLOR 1254 (10%), Method: PREINCUBATION inactive; negative | Test System: AMES SALMONELLA TYPHIMURIUM, Strain/Indicator: TA97, Metabolic Activation: HAMSTER, LIVER, S-9, AROCLOR 1254 (30%), Method: PREINCUBATION inactive; negative | [1] inactive; negative | Test System: AMES SALMONELLA TYPHIMURIUM, Strain/Indicator: TA97, Metabolic Activation: RAT, LIVER, S-9, AROCLOR 1254 (10%), Method: PREINCUBATION inactive; negative | Test System: AMES SALMONELLA TYPHIMURIUM, Strain/Indicator: TA97, Metabolic Activation: RAT, LIVER, S-9, AROCLOR 1254 (30%), Method: PREINCUBATION inactive; negative | Test System: AMES SALMONELLA TYPHIMURIUM, Strain/Indicator: TA98, Metabolic Activation: HAMSTER, LIVER, S-9, AROCLOR 1254 (10%), Method: PREINCUBATION inactive; negative | Test System: AMES SALMONELLA TYPHIMURIUM, Strain/Indicator: TA98, Metabolic Activation: HAMSTER, LIVER, S-9, AROCLOR 1254 (30%), Method: PREINCUBATION inactive; negative | [2] inactive; negative | Test System: AMES SALMONELLA TYPHIMURIUM, Strain/Indicator: TA98, Metabolic Activation: RAT, LIVER, S-9, AROCLOR 1254 (10%), Method: PREINCUBATION inactive; negative | Test System: AMES SALMONELLA TYPHIMURIUM, Strain/Indicator: TA98, Metabolic Activation: RAT, LIVER, S-9, AROCLOR 1254 (30%), Method: PREINCUBATION inactive; negative | Test System: AMES SALMONELLA TYPHIMURIUM, Strain/Indicator: TA100, Metabolic Activation: HAMSTER, LIVER, S-9, AROCLOR 1254 (10%), Method: PREINCUBATION inactive; negative | Test System: AMES SALMONELLA TYPHIMURIUM, Strain/Indicator: TA100, Metabolic Activation: HAMSTER, LIVER, S-9, AROCLOR 1254 (30%), Method: PREINCUBATION inactive; negative | [3] inactive; negative | Test System: AMES SALMONELLA TYPHIMURIUM, Strain/Indicator: TA100, Metabolic Activation: NONE, Method: STANDARD PLATE inactive; negative | Test System: AMES SALMONELLA TYPHIMURIUM, Strain/Indicator: TA100, Metabolic Activation: RAT, LIVER, S-9, AROCLOR 1254 (10%), Method: PREINCUBATION inactive; negative | Test System: AMES SALMONELLA TYPHIMURIUM, Strain/Indicator: TA100, Metabolic Activation: RAT, LIVER, S-9, AROCLOR 1254 (30%), Method: PREINCUBATION inactive; negative | Test System: AMES SALMONELLA TYPHIMURIUM, Strain/Indicator: TA1535, Metabolic Activation: HAMSTER, LIVER, S-9, AROCLOR 1254 (10%), Method: PREINCUBATION inactive; negative | Test System: AMES SALMONELLA TYPHIMURIUM, Strain/Indicator: TA1535, Metabolic Activation: HAMSTER, LIVER, S-9, AROCLOR 1254 (30%), Method: PREINCUBATION inactive; negative | [4] inactive; negative | Test System: AMES SALMONELLA TYPHIMURIUM, Strain/Indicator: TA1535, Metabolic Activation: RAT, LIVER, S-9, AROCLOR 1254 (10%), Method: PREINCUBATION inactive; negative | Test System: AMES SALMONELLA TYPHIMURIUM, Strain/Indicator: TA1535, Metabolic Activation: RAT, LIVER, S-9, AROCLOR 1254 (30%), Method: PREINCUBATION inactive; negative | Test System: AMES SALMONELLA TYPHIMURIUM, Strain/Indicator: TA1537, Metabolic Activation: HAMSTER, LIVER, S-9, AROCLOR 1254 (30%), Method: PREINCUBATION inactive; negative | Test System: AMES SALMONELLA TYPHIMURIUM, Strain/Indicator: TA1537, Metabolic Activation: NONE, Method: PREINCUBATION inactive; negative | Test System: AMES SALMONELLA TYPHIMURIUM, Strain/Indicator: TA1537, Metabolic Activation: RAT, LIVER, S-9, AROCLOR 1254 (30%), Method: PREINCUBATION inactive; negative

[Zn]
inactive: Test System: AMES SALMONELLA TYPHIMURIUM, Strain/Indicator: TA98, Metabolic Activation: NONE, Method: STANDARD PLATE inactive; negative | Test System: AMES SALMONELLA TYPHIMURIUM, Strain/Indicator: TA98, Metabolic Activation: RAT, LIVER, S-9, PHENOBARBITAL, Method: STANDARD PLATE inactive; negative | Test System: AMES SALMONELLA TYPHIMURIUM, Strain/Indicator: TA102, Metabolic Activation: NONE, Method: STANDARD PLATE inactive; negative | Test System: AMES SALMONELLA TYPHIMURIUM, Strain/Indicator: TA102, Metabolic Activation: RAT, LIVER, S-9, PHENOBARBITAL, Method: STANDARD PLATE inactive; negative | Test System: AMES SALMONELLA TYPHIMURIUM, Strain/Indicator: TA1535, Metabolic Activation: NONE, Method: STANDARD PLATE inactive; negative | Test System: AMES SALMONELLA TYPHIMURIUM, Strain/Indicator: TA1535, Metabolic Activation: RAT, LIVER, S-9, PHENOBARBITAL, Method: STANDARD PLATE inactive; negative | Test System: AMES SALMONELLA TYPHIMURIUM, Strain/Indicator: TA1537, Metabolic Activation: NONE, Method: STANDARD PLATE inactive; negative | Test System: AMES SALMONELLA TYPHIMURIUM, Strain/Indicator: TA1537, Metabolic Activation: RAT, LIVER, S-9, PHENOBARBITAL, Method: STANDARD PLATE inactive; negative | Test System: UDS HUMAN AMNION FL CELL LINE, Strain/Indicator: THY INCORP, Metabolic Activation: NONE, Method: LIQUID SCINTILLATION COUNTING inactive; negative

CCCCCCCCCCCCCCCCN
inactive: Test System: AMES SALMONELLA TYPHIMURIUM, Strain/Indicator: TA97, Metabolic Activation: HAMSTER, LIVER, S-9, AROCLOR 1254 (10 OR 30%), Method: PREINCUBATION inactive; negative | [1] inactive; negative | Test System: AMES SALMONELLA TYPHIMURIUM, Strain/Indicator: TA97, Metabolic Activation: RAT, LIVER, S-9, AROCLOR 1254 (10 OR 30%), Method: PREINCUBATION inactive; negative | Test System: AMES SALMONELLA TYPHIMURIUM, Strain/Indicator: TA98, Metabolic Activation: HAMSTER, LIVER, S-9, AROCLOR 1254 (10 OR 30%), Method: PREINCUBATION inactive; negative | [2] inactive; negative | Test System: AMES SALMONELLA TYPHIMURIUM, Strain/Indicator: TA98, Metabolic Activation: RAT, LIVER, S-9, AROCLOR 1254 (10 OR 30%), Method: PREINCUBATION inactive; negative | Test System: AMES SALMONELLA TYPHIMURIUM, Strain/Indicator: TA100, Metabolic Activation: HAMSTER, LIVER, S-9, AROCLOR 1254 (10 OR 30%), Method: PREINCUBATION inactive; negative | [3] inactive; negative | Test System: AMES SALMONELLA TYPHIMURIUM, Strain/Indicator: TA100, Metabolic Activation: RAT, LIVER, S-9, AROCLOR 1254 (10 OR 30%), Method: PREINCUBATION inactive; negative | Test System: AMES SALMONELLA TYPHIMURIUM, Strain/Indicator: TA1535, Metabolic Activation: HAMSTER, LIVER, S-9, AROCLOR 1254 (10 OR 30%), Method: PREINCUBATION inactive; negative | [4] inactive; negative | Test System: AMES SALMONELLA TYPHIMURIUM, Strain/Indicator: TA1535, Metabolic Activation: RAT, LIVER, S-9, AROCLOR 1254 (10 OR 30%), Method: PREINCUBATION inactive; negative
